Data from patent US20250171451A1, “NOVEL HETEROCYCLIC COMPOUND AND PHARMACEUTICAL COMPOSITION COMPRISING SAME” (Samjin Pharmaceutical Co., Ltd., priority 2022, published 2025).

tested on: TEAD response element (TRE) luciferase reporter in MCF-7 cell lines; assay: TEAD response element (TRE) reporter assay; type: cell-based; conditions: Homo sapiens, MCF7; 0.2 μM compound, 24 hours, MCF-7 TEAD reporter cells, relative to vehicle (1% DMSO)
Description: MCF-7 cell lines injected with TEAD reporter genes expressing firefly luciferase upon activation of TEAD response element (TRE) were obtained from BPS bioscience (#60618). The TEAD reporter genes were injected to stable expression in the MCF-7 cell lines.
TEAD reporter genes expressing firefly luciferase upon activation of TEAD response element (TRE) were injected with TEAD reporter genes to ensure stable expression of the TEAD reporter genes. Here, the TEAD reporter genes expresses firefly luciferase upon activation of TEAD response element (TRE). The cells were cultured in a cell-only culture medium (BPS bioscience) to which 10 μg/mL insulin (Sigma) was added at 37° C. and 5% CO2.
In 24 hours after dispensing said cells into a 96-well plate, each of the compounds of the examples or a vehicle solvent (final 1% DMSO) was treated by being diluted with a serum-free culture medium so that the final concentration became 0.2 μM. In 24 hours after said treatment, a luciferase assay working solution (ONE-Step Luciferase assay reagent; BPS bioscience) containing a luciferase substrate was treated in each well at 100 μL, and then left in a shaker for 15 minutes to be well mixed. Then, a degree of luminescence generated by luciferase expressed according to TEAD activation was measured by a microplate reader (TECAN). A relative activity of luciferase […], and the results are shown in table 8 below.

Question: Which inhibition at 0.2 µM does the source give for `C=CC(=O)Nc1ncc2cnn(Cc3ccc(C(F)(F)F)cc3)c2n1` [Compound 19, N-(1-(4-(trifluoromethyl)benzyl)-1H-pyrazolo[3,4-d]pyrimidin-6-yl)acrylamide] here?
Answer: Its inhibition at 0.2 µM is under 30%.

Question: Which inhibition at 0.2 µM does the source give for `C=CC(=O)Nc1ncc2c(C)nn(Cc3ccc(C(F)(F)F)cc3)c2n1` [Compound 20, N-(3-methyl-1-(4-(trifluoromethyl)benzyl)-1H-pyrazolo[3,4-d]pyrimidin-6-yl)acrylamide] here?
Answer: Its inhibition at 0.2 µM is under 30%.

Question: How did the inhibition at 0.2 µM turn out when `CC=CC(=O)Nc1cnc2c(c1)c(C)cn2Cc1ccc(C(F)(F)F)cc1` [Compound 21, N-(3-methyl-1-(4-(trifluoromethyl)benzyl)-1H-pyrrolo[2,3-b]pyridin-5-yl)but-2-enamide] was run?
Answer: Its inhibition at 0.2 µM is under 30%.

Question: How did the inhibition at 0.2 µM turn out when `C=CC(=O)Nc1ncc2c(cnn2Cc2ccc(C(F)(F)F)cc2)n1` [Compound 22, N-(1-(4-(trifluoromethyl)benzyl)-1H-pyrazolo[4,3-d]pyrimidin-5-yl)acrylamide] was run?
Answer: Its inhibition at 0.2 µM is under 30%.

Question: With `CC=CC(=O)Nc1cnc2c(c1)c(C)cn2CCCC` [Compound 23, N-(1-butyl-3-methyl-1H-pyrrolo[2,3-b]pyridin-5-yl)but-2-enamide] as the compound, how does the inhibition at 0.2 µM read?
Answer: Its inhibition at 0.2 µM is under 30%.

Question: With `C=CC(=O)Nc1cnc2c(c1)c(C)cn2C(=O)c1ccc(C(F)(F)F)cc1` [Compound 24, N-(3-methyl-1-(4-(trifluoromethyl)benzoyl)-1H-pyrrolo[2,3-b]pyridin-5-yl)acrylamide] as the compound, how does the inhibition at 0.2 µM read?
Answer: Its inhibition at 0.2 µM is under 30%.

Question: Which inhibition at 0.2 µM does the source give for `Cc1cn(Cc2ccc(C(F)(F)F)cc2)c2ncc(NC(=O)C(C)C)cc12` [Compound 25, N-(3-methyl-1-(4-(trifluoromethyl)benzyl)-1H-pyrrolo[2,3-b]pyridin-5-yl)isobutyramide] here?
Answer: The inhibition at 0.2 µM was under 30%.

Question: Which inhibition at 0.2 µM does the source give for `C=CC(=O)Nc1cnc2c(c1)c(C)cn2CCC(C)C` [Compound 26, N-(1-isopentyl-3-methyl-1H-pyrrolo[2,3-b]pyridin-5-yl)acrylamide] here?
Answer: Its inhibition at 0.2 µM is 30 to 50%.

Question: How did the inhibition at 0.2 µM turn out when `C=CC(=O)Nc1cnc2c(n1)c(C)cn2Cc1ccc(C(F)(F)F)cc1` [Compound 28, N-(7-methyl-5-(4-(trifluoromethyl)benzyl)-5H-pyrrolo[2,3-b]pyrazin-2-yl)acrylamide] was run?
Answer: Its inhibition at 0.2 µM is over 50%.

Question: Which inhibition at 0.2 µM does the source give for `C=CC(=O)Nc1cc2ccn(Cc3ccc(C(F)(F)F)cc3)c2cn1` [Compound 29, N-(1-(4-(trifluoromethyl)benzyl)-1H-pyrrolo[2,3-c]pyridin-5-yl)acrylamide] here?
Answer: The inhibition at 0.2 µM was under 30%.

Question: Which inhibition at 0.2 µM does the source give for `C=CC(=O)Nc1cnc2ncn(Cc3ccc(C(F)(F)F)cc3)c2c1` [Compound 30, N-(1-(4-(trifluoromethyl)benzyl)-1H-imidazo[4,5-b]pyridin-6-yl)acrylamide] here?
Answer: Its inhibition at 0.2 µM is under 30%.

Question: With `C=CC(=O)Nc1cnc2c(n1)c(C)nn2Cc1ccc(C(F)(F)F)cc1` [Compound 31, N-(3-methyl-1-(4-(trifluoromethyl)benzyl)-1H-pyrazolo[3,4-b]pyrazin-5-yl)acrylamide] as the compound, how does the inhibition at 0.2 µM read?
Answer: The inhibition at 0.2 µM was over 50%.

Question: How did the inhibition at 0.2 µM turn out when `C=CC(=O)Nc1ccc2c(C)nn(Cc3ccc(C(F)(F)F)cc3)c2c1` [Compound 32, N-(3-methyl-1-(4-(trifluoromethyl)benzyl)-1H-indazol-6-yl)acrylamide] was run?
Answer: Its inhibition at 0.2 µM is over 50%.

Question: With `C=CC(=O)Nc1ccc2c(c1)c(C)nn2Cc1ccc(C(F)(F)F)cc1` [Compound 33, N-(3-methyl-1-(4-(trifluoromethyl)benzyl)-1H-indazol-5-yl)acrylamide] as the compound, how does the inhibition at 0.2 µM read?
Answer: The inhibition at 0.2 µM was over 50%.

Question: With `C=CC(=O)Nc1ccc2cnn(-c3ccc(C(F)(F)F)cc3)c2c1` [Compound 34, N-(1-(4-(trifluoromethyl)phenyl)-1H-indazol-6-yl)acrylamide] as the compound, how does the inhibition at 0.2 µM read?
Answer: Its inhibition at 0.2 µM is 30 to 50%.

Question: For `C=CC(=O)Nc1cnc2c(cnn2-c2ccc(C(F)(F)F)cc2)c1` [Compound 35, N-(1-(4-(trifluoromethyl)phenyl)-1H-pyrazolo[3,4-b]pyridin-5-yl)acrylamide], which inhibition at 0.2 µM is on record?
Answer: Its inhibition at 0.2 µM is over 50%.

target: T1, recombinant GST-TEAD1 proteins (209 to 426 a.a.) (Homo sapiens, UniProt P28347); assay: Evaluation of palmitoylation of TEAD protein; type: biochemical; conditions: 5 μM compound, 15 minutes preincubation, 3 μM alkyne palmitoyl-CoA 30 minutes, pH 6.4, vs DMSO control
T1 construct: recombinant GST-TEAD1 proteins (209 to 426 a.a.)
Description: Each compound corresponding to a concentration of 5 μM was added to recombinant GST-TEAD1 proteins (209 to 426 a.a.) and cultured for 15 minutes. For an autopalmitoylation reaction of proteins after culturing, 3 μM alkyne palmitoyl-CoA (Cayman chemical) and 50 mM MES buffer (pH 6.4) were added and cultured for 30 minutes, after which 1% of sodium dodecyl sulfate (SDS) was added to stop the reaction. After that, biotinylation was performed through a CLICK (Click chemistry tools) reaction, and then a protein solution was concentrated to prepare a sample.
Analysis of the sample was performed using SDS-PAGE and streptavidin HRP (Thermo scientific). The resulting values were quantified using an Image J (NIH). For the intensity of the band obtained from Streptavidin blot, a palmitoylation inhibitory activity was analyzed based on the control group (DMSO). The normalization of each sample was performed using an anti-GST (91G1) (cell signaling) antibody.

T1 sequence (P28347 209-426): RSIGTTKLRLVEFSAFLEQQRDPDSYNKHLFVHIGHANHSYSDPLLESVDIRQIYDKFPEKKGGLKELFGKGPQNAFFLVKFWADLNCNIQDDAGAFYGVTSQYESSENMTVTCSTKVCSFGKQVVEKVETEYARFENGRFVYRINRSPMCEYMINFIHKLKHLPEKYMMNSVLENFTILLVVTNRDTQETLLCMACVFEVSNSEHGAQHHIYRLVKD

Question: For `C=CC(=O)Nc1ncc2cnn(Cc3ccc(C(F)(F)F)cc3)c2n1` [Compound 19, N-(1-(4-(trifluoromethyl)benzyl)-1H-pyrazolo[3,4-d]pyrimidin-6-yl)acrylamide], which inhibition at 5 µM is on record?
Answer: Its inhibition at 5 µM is under 40%.

Question: How did the inhibition at 5 µM turn out when `C=CC(=O)Nc1ncc2c(C)nn(Cc3ccc(C(F)(F)F)cc3)c2n1` [Compound 20, N-(3-methyl-1-(4-(trifluoromethyl)benzyl)-1H-pyrazolo[3,4-d]pyrimidin-6-yl)acrylamide] was run?
Answer: Its inhibition at 5 µM is under 40%.

Question: Which inhibition at 5 µM does the source give for `CC=CC(=O)Nc1cnc2c(c1)c(C)cn2Cc1ccc(C(F)(F)F)cc1` [Compound 21, N-(3-methyl-1-(4-(trifluoromethyl)benzyl)-1H-pyrrolo[2,3-b]pyridin-5-yl)but-2-enamide] here?
Answer: The inhibition at 5 µM was under 40%.

Question: With `C=CC(=O)Nc1ncc2c(cnn2Cc2ccc(C(F)(F)F)cc2)n1` [Compound 22, N-(1-(4-(trifluoromethyl)benzyl)-1H-pyrazolo[4,3-d]pyrimidin-5-yl)acrylamide] as the compound, how does the inhibition at 5 µM read?
Answer: Its inhibition at 5 µM is under 40%.

Question: With `CC=CC(=O)Nc1cnc2c(c1)c(C)cn2CCCC` [Compound 23, N-(1-butyl-3-methyl-1H-pyrrolo[2,3-b]pyridin-5-yl)but-2-enamide] as the compound, how does the inhibition at 5 µM read?
Answer: The inhibition at 5 µM was under 40%.

Question: Which inhibition at 5 µM does the source give for `C=CC(=O)Nc1cnc2c(c1)c(C)cn2C(=O)c1ccc(C(F)(F)F)cc1` [Compound 24, N-(3-methyl-1-(4-(trifluoromethyl)benzoyl)-1H-pyrrolo[2,3-b]pyridin-5-yl)acrylamide] here?
Answer: Its inhibition at 5 µM is over 80%.

Question: How did the inhibition at 5 µM turn out when `Cc1cn(Cc2ccc(C(F)(F)F)cc2)c2ncc(NC(=O)C(C)C)cc12` [Compound 25, N-(3-methyl-1-(4-(trifluoromethyl)benzyl)-1H-pyrrolo[2,3-b]pyridin-5-yl)isobutyramide] was run?
Answer: Its inhibition at 5 µM is 40 to 80%.

Question: Which inhibition at 5 µM does the source give for `C=CC(=O)Nc1cnc2c(c1)c(C)cn2CCC(C)C` [Compound 26, N-(1-isopentyl-3-methyl-1H-pyrrolo[2,3-b]pyridin-5-yl)acrylamide] here?
Answer: Its inhibition at 5 µM is over 80%.

Question: Which inhibition at 5 µM does the source give for `C=CC(=O)Nc1cnc2c(n1)c(C)cn2Cc1ccc(C(F)(F)F)cc1` [Compound 28, N-(7-methyl-5-(4-(trifluoromethyl)benzyl)-5H-pyrrolo[2,3-b]pyrazin-2-yl)acrylamide] here?
Answer: Its inhibition at 5 µM is over 80%.

Question: How did the inhibition at 5 µM turn out when `C=CC(=O)Nc1cc2ccn(Cc3ccc(C(F)(F)F)cc3)c2cn1` [Compound 29, N-(1-(4-(trifluoromethyl)benzyl)-1H-pyrrolo[2,3-c]pyridin-5-yl)acrylamide] was run?
Answer: The inhibition at 5 µM was 40 to 80%.

Question: How did the inhibition at 5 µM turn out when `C=CC(=O)Nc1cnc2ncn(Cc3ccc(C(F)(F)F)cc3)c2c1` [Compound 30, N-(1-(4-(trifluoromethyl)benzyl)-1H-imidazo[4,5-b]pyridin-6-yl)acrylamide] was run?
Answer: The inhibition at 5 µM was 40 to 80%.

Question: For `C=CC(=O)Nc1cnc2c(n1)c(C)nn2Cc1ccc(C(F)(F)F)cc1` [Compound 31, N-(3-methyl-1-(4-(trifluoromethyl)benzyl)-1H-pyrazolo[3,4-b]pyrazin-5-yl)acrylamide], which inhibition at 5 µM is on record?
Answer: The inhibition at 5 µM was 40 to 80%.

Question: How did the inhibition at 5 µM turn out when `C=CC(=O)Nc1ccc2c(C)nn(Cc3ccc(C(F)(F)F)cc3)c2c1` [Compound 32, N-(3-methyl-1-(4-(trifluoromethyl)benzyl)-1H-indazol-6-yl)acrylamide] was run?
Answer: Its inhibition at 5 µM is 40 to 80%.

Question: For `C=CC(=O)Nc1ccc2c(c1)c(C)nn2Cc1ccc(C(F)(F)F)cc1` [Compound 33, N-(3-methyl-1-(4-(trifluoromethyl)benzyl)-1H-indazol-5-yl)acrylamide], which inhibition at 5 µM is on record?
Answer: The inhibition at 5 µM was 40 to 80%.

Question: `C=CC(=O)Nc1ccc2cnn(-c3ccc(C(F)(F)F)cc3)c2c1` [Compound 34, N-(1-(4-(trifluoromethyl)phenyl)-1H-indazol-6-yl)acrylamide] was tested. Which inhibition at 5 µM did it give?
Answer: The inhibition at 5 µM was 40 to 80%.

Question: How did the inhibition at 5 µM turn out when `C=CC(=O)Nc1cnc2c(cnn2-c2ccc(C(F)(F)F)cc2)c1` [Compound 35, N-(1-(4-(trifluoromethyl)phenyl)-1H-pyrazolo[3,4-b]pyridin-5-yl)acrylamide] was run?
Answer: Its inhibition at 5 µM is 40 to 80%.
